Measured values: article PMC12845078 (Pharmaceuticals, 2025)

Assays:
Format in all cases: in vitro ADME
[1] = Whole blood/plasma distribution ratio, mouse
Protocol: (§1) After incubation for 20 min, a portion of the whole blood was centrifuged at 2500× g for 10 min at 4 °C to separate plasma; another portion of the whole blood was subjected to three cycles of freeze–thawing and ultrasonicated for 10 min to disrupt cells. Equal volumes of plasma and whole blood samples were added to the whole blood and plasma specimens, respectively, followed by protein precipitation with acetonitrile containing an internal standard (IS). […] The RED inserts were placed in the matching incubation plate: 200 µL of drug-containing matrix were added to the sample chamber, and 400 µL of PBS buffer (pH: 7.4) were added to the buffer chamber. After incubation in a constant-temperature shaking incubator for 6 h (37 °C), samples from the sample chamber and buffer chamber were diluted 1:1 with PBS or matrix, respectively, and proteins were precipitated with acetonitrile containing IS.

[2] = Protein binding with hepatic microsomes and plasma proteins across species (summary); conditions: beagle (dog), rat, human, liver microsomes and plasma, pH 7.4, both hepatic microsomes and plasma proteins
Protocol: as §1

[3] = target: T1, CYP enzymes involved in melatonin 6-hydroxylation (Canis lupus familiaris, UniProt P56592); assay: Competitive inhibition of CBD on MT 6-hydroxylation, beagle liver microsomes; conditions: dog, probe melatonin (MT) 1 μM, 6-hydroxylation to 6-HMT
T1 sequence (P56592 2-512): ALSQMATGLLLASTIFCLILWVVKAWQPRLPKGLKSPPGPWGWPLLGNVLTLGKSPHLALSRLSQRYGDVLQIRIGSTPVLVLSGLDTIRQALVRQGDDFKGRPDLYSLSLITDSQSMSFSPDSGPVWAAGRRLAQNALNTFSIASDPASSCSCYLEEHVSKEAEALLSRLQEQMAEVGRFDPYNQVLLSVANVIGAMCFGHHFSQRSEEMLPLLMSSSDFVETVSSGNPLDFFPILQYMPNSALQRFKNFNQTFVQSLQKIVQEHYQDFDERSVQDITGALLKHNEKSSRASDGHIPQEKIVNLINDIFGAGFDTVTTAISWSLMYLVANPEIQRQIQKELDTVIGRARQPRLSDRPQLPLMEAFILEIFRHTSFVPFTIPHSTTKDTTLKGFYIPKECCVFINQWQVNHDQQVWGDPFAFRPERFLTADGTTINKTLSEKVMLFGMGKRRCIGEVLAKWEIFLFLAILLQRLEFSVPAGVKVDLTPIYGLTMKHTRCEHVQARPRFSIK
Protocol: The final incubation system contained 100 mM PBS, 5 mM MgCl2, 0.5 mg/mL liver microsomal protein, and 1 mM NADPH. […] The final concentration of MT was 1 μM.

[4] = test system: CYP enzymes mediating MT 6-hydroxylation in rat liver microsomes; assay: Irreversible (mechanism-based) inhibition of CBD on MT 6-hydroxylation, rat liver microsomes
Protocol: The reaction was initiated by adding the NADPH working solution that had also been pre-incubated for 5 min. […] After pre-incubation for different durations (0, 5, 10, 20, 30 min), 10 μL of the incubation mixture were transferred to a secondary incubation system containing 148 μL PBS and 2 μL MT working solution (final MT concentration: 200 μM). An additional 40 μL of NADPH were added, and the mixture was incubated for 30 min.
Irreversible inhibition assays: A semi-logarithmic curve was generated by plotting residual enzyme activity against pre-incubation time. The observed CYP enzyme inactivation rate (Kobs) was derived from the initial slope of the linear regression. The Lineweaver-Burk double reciprocal curve (1/Kobs vs. 1/I) described by Formula (8) was used to determine KI and Kinact: Kinact was estimated from the reciprocal of the Y-intercept, and KI was obtained from the negative reciprocal of the X-intercept.(8) 1/k=KI/Kinact1/I+1/Kinact

SMILES: C=C(C)[C@@H]1CCC(C)=C[C@H]1c1c(O)cc(CCCCC)cc1O [CBD, Cannabidiol]
- Rb/p (Ratio) [1]: 0.82 (0.19)
- fraction unbound at 6 h [2]: < 0.01
- IC50 at 30 min ([3]; IC50, beagle, as listed in Table 6 for static DDI model): 650 nM
- IC50 at 30 min ([3]; IC50, inhibition of MT 6-hydroxylation, DLM, MT 1 μM): 3420 ± 1300 nM
- irreversible inhibitory effect [4]: no irreversible inhibitory effect was observed
